# Reference: patent US8759011B2, “Assay system for determining binding of hydrophobic drugs” (Nederlandse Organisatie voor …, priority 2009, dated 2014)
# System: human plasma
# Test: plasma binding by partition extraction in dimethylsiloxane-coated 96-well plates
# Type: in vitro ADME
# Settings: one plate
# Description: 96-wells deepwell plates (lot 1450-401 Perkin-Elmer Lifesciences) were coated with dimethylsiloxane by making the solutions A-H here below in n-hexane. The used dimethylsiloxane (Silicone rubber, GE Silicones, Bergen op Zoom, The Netherlands) has a density of 1.06. Solution H contains 9.54 g dimethylsiloxane in 300 ml n-hexane.
# From solutions A-H 100 μl is pipetted in row A-H of each plate. Plates were dried to air for minimally 18 hours (overnight).
# To each dilution of plasma (solutions 1-12) an identical amount of the compound to be tested is added (about […]/200 μl solution). […] The solutions are incubated with the compound overnight at 4°.
# The plasma solutions 1-12 are added to corresponding columns 1-12 of each plate (200 μl/well). Also 200 μl was added to a separate vessel to be able to correct for (plasma concentration dependent) solubilization. The next day the plates are emptied, washed once with aqua bidest and dried. When sufficient dry in all wells 200 μl counting solution (Optiphase Hisafe 2, Perkin Elmer Lifesciences) is added and the plates are covered. After incubation for minimally 4 hours under gently shaking the radioactivity in each plate is determined using liquid scintillation counting with a MicroBeta device (Perkin Elmer).
# Additionally a total count was determined for each well. The total count is the count in the polymer coating+the count in the remaining fluid. The latter was determined by isolating 25 μl from solution in each well prior to emptying, and mixing with Optiphase (Perkin Elmer) followed by liquid scintillation counting.
# 1. For each datapoint for which the total count was determined, the recovery of total radioactivity was determined by comparing with the counts of the reference spiking solution. Cells with a total recovery <75% were excluded from further data analysis.
# 2. From all rows containing polymer, the a-specific binding, i.e. the corresponding counts from the row without polymer, was substracted.
# 3. Curve fitting was applied using the following formula for each cell:
# Predicted counts in coating=Tc/((1/ffp+1/fp−1)×(fp×Vw)/Kpdms/Vp)), where
# The above formula was fitted using ffp and Kpdms target parameters to be optimized using the least squares regression method over all wells that were included in the data analysis, by calculating the squared difference between the measured counts in the coating and the predicted counts in the coating. Results
compound,measurement,setting,value
CC(C)c1nc(CN(C)C(=O)N[C@H](C(=O)N[C@@H](Cc2ccccc2)C[C@H](O)[C@H](Cc2ccccc2)NC(=O)OCc2cncs2)C(C)C)cs1 [Ritonavir],counts in the polymer coating,"plasma 0 ml/ml, coating 0 nl",2561
same,counts in the polymer coating,"plasma 0 ml/ml, coating 4.1 nl",3274
same,counts in the polymer coating,"plasma 0 ml/ml, coating 10.2 nl",4727
same,counts in the polymer coating,"plasma 0 ml/ml, coating 25.6 nl",6222
same,counts in the polymer coating,"plasma 0 ml/ml, coating 64 nl",6561
same,counts in the polymer coating,"plasma 0 ml/ml, coating 160 nl",8997
same,counts in the polymer coating,"plasma 0 ml/ml, coating 400 nl",9656
same,counts in the polymer coating,"plasma 0 ml/ml, coating 1000 nl",10194
same,counts in the polymer coating,"plasma 0.0005 ml/ml, coating 0 nl",408
same,counts in the polymer coating,"plasma 0.0005 ml/ml, coating 4.1 nl",3323
same,counts in the polymer coating,"plasma 0.0005 ml/ml, coating 10.2 nl",5936
same,counts in the polymer coating,"plasma 0.0005 ml/ml, coating 25.6 nl",9146
same,counts in the polymer coating,"plasma 0.0005 ml/ml, coating 64 nl",14297
same,counts in the polymer coating,"plasma 0.0005 ml/ml, coating 160 nl",16590
same,counts in the polymer coating,"plasma 0.0005 ml/ml, coating 400 nl",17305
same,counts in the polymer coating,"plasma 0.0005 ml/ml, coating 1000 nl",17396
same,counts in the polymer coating,"plasma 0.0008 ml/ml, coating 0 nl",355
same,counts in the polymer coating,"plasma 0.0008 ml/ml, coating 4.1 nl",3033
same,counts in the polymer coating,"plasma 0.0008 ml/ml, coating 10.2 nl",6243
same,counts in the polymer coating,"plasma 0.0008 ml/ml, coating 25.6 nl",9649
same,counts in the polymer coating,"plasma 0.0008 ml/ml, coating 64 nl",15214
same,counts in the polymer coating,"plasma 0.0008 ml/ml, coating 160 nl",17344
same,counts in the polymer coating,"plasma 0.0008 ml/ml, coating 400 nl",18129
same,counts in the polymer coating,"plasma 0.0008 ml/ml, coating 1000 nl",18254
same,counts in the polymer coating,"plasma 0.001 ml/ml, coating 0 nl",368
same,counts in the polymer coating,"plasma 0.001 ml/ml, coating 4.1 nl",2677
same,counts in the polymer coating,"plasma 0.001 ml/ml, coating 10.2 nl",6668
same,counts in the polymer coating,"plasma 0.001 ml/ml, coating 25.6 nl",10037
same,counts in the polymer coating,"plasma 0.001 ml/ml, coating 64 nl",15293
same,counts in the polymer coating,"plasma 0.001 ml/ml, coating 160 nl",17749
same,counts in the polymer coating,"plasma 0.001 ml/ml, coating 400 nl",18063
same,counts in the polymer coating,"plasma 0.001 ml/ml, coating 1000 nl",18984
same,counts in the polymer coating,"plasma 0.003 ml/ml, coating 0 nl",250
same,counts in the polymer coating,"plasma 0.003 ml/ml, coating 4.1 nl",2391
same,counts in the polymer coating,"plasma 0.003 ml/ml, coating 10.2 nl",6779
same,counts in the polymer coating,"plasma 0.003 ml/ml, coating 25.6 nl",9818
same,counts in the polymer coating,"plasma 0.003 ml/ml, coating 64 nl",15161
same,counts in the polymer coating,"plasma 0.003 ml/ml, coating 160 nl",18112
same,counts in the polymer coating,"plasma 0.003 ml/ml, coating 400 nl",19067
same,counts in the polymer coating,"plasma 0.003 ml/ml, coating 1000 nl",19314
same,counts in the polymer coating,"plasma 0.005 ml/ml, coating 0 nl",266
same,counts in the polymer coating,"plasma 0.005 ml/ml, coating 4.1 nl",2725
same,counts in the polymer coating,"plasma 0.005 ml/ml, coating 10.2 nl",7054
same,counts in the polymer coating,"plasma 0.005 ml/ml, coating 25.6 nl",10234
same,counts in the polymer coating,"plasma 0.005 ml/ml, coating 64 nl",15908
same,counts in the polymer coating,"plasma 0.005 ml/ml, coating 160 nl",18628
same,counts in the polymer coating,"plasma 0.005 ml/ml, coating 400 nl",19174
same,counts in the polymer coating,"plasma 0.005 ml/ml, coating 1000 nl",19676
same,counts in the polymer coating,"plasma 0.008 ml/ml, coating 0 nl",262
same,counts in the polymer coating,"plasma 0.008 ml/ml, coating 4.1 nl",2605
same,counts in the polymer coating,"plasma 0.008 ml/ml, coating 10.2 nl",5943
same,counts in the polymer coating,"plasma 0.008 ml/ml, coating 25.6 nl",9899
same,counts in the polymer coating,"plasma 0.008 ml/ml, coating 64 nl",15892
same,counts in the polymer coating,"plasma 0.008 ml/ml, coating 160 nl",18582
same,counts in the polymer coating,"plasma 0.008 ml/ml, coating 400 nl",19405
same,counts in the polymer coating,"plasma 0.008 ml/ml, coating 1000 nl",19541
same,counts in the polymer coating,"plasma 0.01 ml/ml, coating 0 nl",260
same,counts in the polymer coating,"plasma 0.01 ml/ml, coating 4.1 nl",2644
same,counts in the polymer coating,"plasma 0.01 ml/ml, coating 10.2 nl",6466
same,counts in the polymer coating,"plasma 0.01 ml/ml, coating 25.6 nl",9247
same,counts in the polymer coating,"plasma 0.01 ml/ml, coating 64 nl",15112
same,counts in the polymer coating,"plasma 0.01 ml/ml, coating 160 nl",18647
same,counts in the polymer coating,"plasma 0.01 ml/ml, coating 400 nl",19137
same,counts in the polymer coating,"plasma 0.01 ml/ml, coating 1000 nl",19454
same,counts in the polymer coating,"plasma 0.02 ml/ml, coating 0 nl",208
same,counts in the polymer coating,"plasma 0.02 ml/ml, coating 4.1 nl",2135
same,counts in the polymer coating,"plasma 0.02 ml/ml, coating 10.2 nl",5288
same,counts in the polymer coating,"plasma 0.02 ml/ml, coating 25.6 nl",8673
same,counts in the polymer coating,"plasma 0.02 ml/ml, coating 64 nl",14665
same,counts in the polymer coating,"plasma 0.02 ml/ml, coating 160 nl",18017
same,counts in the polymer coating,"plasma 0.02 ml/ml, coating 400 nl",19188
same,counts in the polymer coating,"plasma 0.02 ml/ml, coating 1000 nl",19218
same,counts in the polymer coating,"plasma 0.03 ml/ml, coating 0 nl",195
same,counts in the polymer coating,"plasma 0.03 ml/ml, coating 4.1 nl",1925
same,counts in the polymer coating,"plasma 0.03 ml/ml, coating 10.2 nl",4066
same,counts in the polymer coating,"plasma 0.03 ml/ml, coating 25.6 nl",6969
same,counts in the polymer coating,"plasma 0.03 ml/ml, coating 64 nl",13475
same,counts in the polymer coating,"plasma 0.03 ml/ml, coating 160 nl",17384
same,counts in the polymer coating,"plasma 0.03 ml/ml, coating 400 nl",18707
same,counts in the polymer coating,"plasma 0.03 ml/ml, coating 1000 nl",19112
same,counts in the polymer coating,"plasma 0.04 ml/ml, coating 0 nl",156
same,counts in the polymer coating,"plasma 0.04 ml/ml, coating 4.1 nl",1501
same,counts in the polymer coating,"plasma 0.04 ml/ml, coating 10.2 nl",3633
same,counts in the polymer coating,"plasma 0.04 ml/ml, coating 25.6 nl",5932
same,counts in the polymer coating,"plasma 0.04 ml/ml, coating 64 nl",12160
same,counts in the polymer coating,"plasma 0.04 ml/ml, coating 160 nl",16322
same,counts in the polymer coating,"plasma 0.04 ml/ml, coating 400 nl",18174
same,counts in the polymer coating,"plasma 0.04 ml/ml, coating 1000 nl",18716
same,counts in the polymer coating,"plasma 0.05 ml/ml, coating 0 nl",124
same,counts in the polymer coating,"plasma 0.05 ml/ml, coating 4.1 nl",1143
same,counts in the polymer coating,"plasma 0.05 ml/ml, coating 10.2 nl",2760
same,counts in the polymer coating,"plasma 0.05 ml/ml, coating 25.6 nl",5080
same,counts in the polymer coating,"plasma 0.05 ml/ml, coating 64 nl",10938
same,counts in the polymer coating,"plasma 0.05 ml/ml, coating 160 nl",16100
same,counts in the polymer coating,"plasma 0.05 ml/ml, coating 400 nl",17730
same,counts in the polymer coating,"plasma 0.05 ml/ml, coating 1000 nl",18325
